This note sets out measurements from patent US8349309B2, “Polymeric coupling agents and pharmaceutically-active polymers made therefrom” (Interface Biologics Inc., priority 2004, dated 2013).

The assay concerns Pseudomonas aeruginosa. As to the kind of experiment: Macro-dilution minimum inhibitory concentration (MIC) assay. Type of assay: cell-based.

Protocol: Minimum inhibitory concentration (MIC) assays were used to evaluate the antimicrobial activity of incubating solutions obtained from drug polymer biodegradation studies against P. aeruginosa. Turbidity of each culture was recorded to evaluate the inhibitory properties of degradation solution of drug polymers.
The same NF polymer incubation solutions assayed via HPLC were also evaluated for antimicrobial activity using a biological assay. A macro-dilution minimum inhibitory concentration (MIC) assay was employed to determine the concentration of antimicrobial (norfloxacin) that would inhibit the growth of a pathogen often associated with device-related infections, Pseudomonas aeruginosa. […] Incubation solutions from both enzyme and buffer control treatment of NF polymer were used in a biological assay matrix that was designed to estimate the concentration of norfloxacin as a function of incubation time and treatment.

On to “1-ethyl-6-fluoro-1,4-dihydro-4-oxo-7-piperazine-quinoline-3-carboxylic acid [norfloxacin]”, for which the MIC came to 0.8 mu g/mL.
